For assay [1], the target named is T1, human IR (hIR) (Homo sapiens, UniProt P06213).
T1 construct: containing amino acid residues 979-1382 of human IR; made in house; host or cells: Sf9 cells (baculovirus), same process as hIGF1R
Kind of assay: TR-FRET kinase assay of purified hIR. It is filed as biochemical. To be noted: activated hIR 0.5 nM, 10 μM ATP, values given as pIC50 category. (In general: In TR-FRET formats the signal depends on donor and acceptor labels being close together.)

The target in assay [2] is ALK (Homo sapiens, UniProt Q9UM73). Kind of assay: ALK enzyme assay (HTRF). It is filed as biochemical. To be noted: 0.25 nM ALK, 15.0 μM ATP, values given as pIC50 category. An outline of the steps:
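Final compound range 0.00017 to 10 μM (twelve 1:3 dilutions). Kinase reaction with ATP and biotinylated synthetic peptide runs 120 min at 20° C, stopped with EDTA; phosphotyrosine detected by HTRF after 60 min. Inhibition referenced to DMSO (1%) and EDTA (0.1 M) controls, curve-fitted.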

Assay [3] concerns the target T2, NIH-3T3 cells overexpressing human IGF-1R (Homo sapiens, UniProt P08069).
T2 construct: expressed in transfected cells; host or cells: NIH-3T3 (mouse fibroblasts)
The assay can be described thus: IGF-1R cellular autophosphorylation (DELFIA). The class given is cell-based. As to the method:
(§1) NIH-3T3 cells overexpressing human IGF-1R or IR were plated in 96-well plates (10,000 cells/well) in culture media containing 10% fetal bovine serum and incubated at 37° C. in a 5% CO2 incubator. Twenty four hours post-plating, cells were treated with different concentrations of test compounds ranging from 30 uM to 1.5 nM. Two hours after compound addition, cells were stimulated with either human IGF-1 (30 ng/ml) or insulin (3 ug/ml) for 15 minutes. Cell lysates are analyzed for phosphorylated receptors using dissociation enhanced lanthanide fluor-immuno assay (DELFIA) with anti-IGF-1R (MAB391, R&D Systems, Minneapolis, Minn.) or anti-IRβ (sc-711, Santa Cruz Biotechnology, Santa Cruz, Calif.) capture antibody and europium-labeled anti-pTyr antibody (Eu-N1 PT66, Perkin Elmer, Waltham, Mass.) for detection. The fluorescence signal for cells treated with compounds was expressed as percent relative to 100% stimulation (IGF-1 or insulin stimulated signal).

Assay [4] has as its target T3, NIH-3T3 cells overexpressing human IR (Homo sapiens, UniProt P06213).
T3 construct: expressed in transfected cells; host or cells: NIH-3T3 (mouse fibroblasts)
Kind of assay: IR cellular autophosphorylation (DELFIA). The class given is cell-based. To be noted: 2 h compound, insulin 3 ug/ml for 15 minutes, IC50 category. The method, then:
as §1

Assay [5] deals with T4, human IGF1R (hIGF1R) (Homo sapiens, UniProt P08069).
T4 construct: containing amino acid residues 957-1367 of human IGF1R; made in house; host or cells: Sf9 cells (baculovirus)
T4 sequence (P08069 957-1367): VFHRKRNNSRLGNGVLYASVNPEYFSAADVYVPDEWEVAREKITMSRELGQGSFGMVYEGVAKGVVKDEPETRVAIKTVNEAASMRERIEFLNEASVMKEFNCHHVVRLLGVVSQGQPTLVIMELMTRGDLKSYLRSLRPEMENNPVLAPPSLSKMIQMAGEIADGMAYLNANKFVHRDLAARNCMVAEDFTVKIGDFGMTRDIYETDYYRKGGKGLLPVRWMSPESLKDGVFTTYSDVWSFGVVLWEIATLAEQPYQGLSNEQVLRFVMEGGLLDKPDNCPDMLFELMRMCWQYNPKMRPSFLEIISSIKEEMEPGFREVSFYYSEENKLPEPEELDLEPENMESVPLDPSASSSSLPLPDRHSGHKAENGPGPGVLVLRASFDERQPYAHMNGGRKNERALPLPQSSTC
Kind of assay: TR-FRET kinase assay of purified hIGF1R. The class given is biochemical. To be noted: activated hIGF1R 0.5 nM, 10 μM ATP, values given as pIC50 category, read-out: IGF-1R pIC50 (converted).

In assay [6] the test system is Colo205. The assay can be described thus: Inhibition of cell proliferation (CellTiter-Glo or InCell analyzer), Colo205. To be noted: Homo sapiens, COLO 205, 72 h / 3 days, values given as IC50 category. It is filed as cell-based. The method, then: Cell proliferation was measured by either CellTiter-Glo (measures cellular ATP level as a surrogate for total cell number) or by InCell analyzer (counts number of nuclei as a measure of cell number).
For CellTiter-Glo assay, exponentially growing cell lines of different tumor origins, cultured in appropriate media containing 10% fetal bovine serum at 37° C. in a 5% CO2 incubator, were plated at low density (less than 2000cells/well) in 96-well plates. Twenty four hours post-plating, cells were treated with different concentrations of test compounds ranging from 30 uM to 1.5 nM. Several wells were left untreated as a control. Seventy two hours post-treatment, cell numbers were determined using 50-100 ul per well of CellTiter-Glo (Promega #G7573). Plates were incubated at 37° C. for 30 minutes and the chemiluminescent signal was read on the Victor V or Envison 2100 reader.
For InCell Analyser assay, various cell lines of different tumor origins were grown to 70-80% confluency in appropriate culture media containing 10% fetal bovine serum at 37° C. in a 5% CO2 incubator. On day −1, cells were seeded at 2 densities in 384-well plates and incubated at 37° C. overnight. Stock compound plates were prepared in advance which contained dimethyl sulfoxide (DMSO) alone and a 9-point half-log decreasing dose range of the compound in DMSO. The compound plates were stored at −80° C. and each plate was only thawed once and used. On day 0, the main assay plates received compound or DMSO via a sonic delivery system (ECHO). The highest final concentration of compound of the dose range in the culture plates was 10 uM. These plates were cultured at 37° C. for 3 days. […] On day 3, the compound treated plates were stained and fixed to measure proliferation, apoptosis, and mitotic index using an InCelL1000 analyser. A nuclear stain was used to identify cells in the wells. By counting the number of nuclei, the proliferation index of compound treated groups were calculated as a percentage relative to the DMSO control, which was set to 100%. The IC50 values were calculated using model 205 in ExcelFit.
IC50 (nM) values for compounds of select examples were categorized by relative inhibition of cell proliferation.
On the technique in general: In ATP-based viability assays light output follows the ATP content of the culture.

pIC50: −log10 of the molar value. Where only a bound is given, the exact number is not on record here.

T2 sequence (P08069 31-1367): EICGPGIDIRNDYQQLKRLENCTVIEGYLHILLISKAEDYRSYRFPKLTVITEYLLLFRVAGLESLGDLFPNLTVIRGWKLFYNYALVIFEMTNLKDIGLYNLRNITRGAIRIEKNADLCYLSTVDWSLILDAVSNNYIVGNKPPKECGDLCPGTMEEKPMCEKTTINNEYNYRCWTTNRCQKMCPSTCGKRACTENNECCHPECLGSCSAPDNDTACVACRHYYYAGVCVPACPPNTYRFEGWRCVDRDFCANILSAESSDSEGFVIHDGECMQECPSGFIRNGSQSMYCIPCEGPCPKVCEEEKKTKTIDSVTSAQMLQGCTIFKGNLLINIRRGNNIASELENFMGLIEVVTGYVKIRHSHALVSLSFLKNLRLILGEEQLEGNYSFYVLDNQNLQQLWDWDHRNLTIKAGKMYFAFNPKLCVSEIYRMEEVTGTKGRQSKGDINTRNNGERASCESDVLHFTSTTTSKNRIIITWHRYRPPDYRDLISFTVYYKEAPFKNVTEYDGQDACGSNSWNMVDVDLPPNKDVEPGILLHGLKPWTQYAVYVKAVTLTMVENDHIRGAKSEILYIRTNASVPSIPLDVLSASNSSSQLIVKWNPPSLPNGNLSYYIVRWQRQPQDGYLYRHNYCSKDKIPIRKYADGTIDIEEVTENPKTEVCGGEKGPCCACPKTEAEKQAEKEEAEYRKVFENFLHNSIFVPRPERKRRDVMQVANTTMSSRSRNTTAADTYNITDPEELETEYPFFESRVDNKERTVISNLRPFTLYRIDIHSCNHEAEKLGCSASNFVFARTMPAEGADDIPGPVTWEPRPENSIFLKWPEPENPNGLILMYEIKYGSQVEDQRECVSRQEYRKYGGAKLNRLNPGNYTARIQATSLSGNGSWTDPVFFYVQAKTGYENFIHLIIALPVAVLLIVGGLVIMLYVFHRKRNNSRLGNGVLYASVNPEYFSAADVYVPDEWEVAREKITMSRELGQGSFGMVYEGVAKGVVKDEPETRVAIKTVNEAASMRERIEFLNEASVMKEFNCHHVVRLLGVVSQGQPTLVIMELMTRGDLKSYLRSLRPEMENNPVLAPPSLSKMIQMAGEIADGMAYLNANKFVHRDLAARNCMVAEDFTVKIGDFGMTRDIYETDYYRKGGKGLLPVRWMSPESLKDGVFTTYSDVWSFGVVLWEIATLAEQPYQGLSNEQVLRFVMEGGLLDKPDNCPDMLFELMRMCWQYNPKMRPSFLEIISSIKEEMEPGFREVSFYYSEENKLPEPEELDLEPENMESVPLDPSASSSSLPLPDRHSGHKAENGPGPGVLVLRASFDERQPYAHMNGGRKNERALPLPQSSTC
T3 sequence (P06213 28-1382): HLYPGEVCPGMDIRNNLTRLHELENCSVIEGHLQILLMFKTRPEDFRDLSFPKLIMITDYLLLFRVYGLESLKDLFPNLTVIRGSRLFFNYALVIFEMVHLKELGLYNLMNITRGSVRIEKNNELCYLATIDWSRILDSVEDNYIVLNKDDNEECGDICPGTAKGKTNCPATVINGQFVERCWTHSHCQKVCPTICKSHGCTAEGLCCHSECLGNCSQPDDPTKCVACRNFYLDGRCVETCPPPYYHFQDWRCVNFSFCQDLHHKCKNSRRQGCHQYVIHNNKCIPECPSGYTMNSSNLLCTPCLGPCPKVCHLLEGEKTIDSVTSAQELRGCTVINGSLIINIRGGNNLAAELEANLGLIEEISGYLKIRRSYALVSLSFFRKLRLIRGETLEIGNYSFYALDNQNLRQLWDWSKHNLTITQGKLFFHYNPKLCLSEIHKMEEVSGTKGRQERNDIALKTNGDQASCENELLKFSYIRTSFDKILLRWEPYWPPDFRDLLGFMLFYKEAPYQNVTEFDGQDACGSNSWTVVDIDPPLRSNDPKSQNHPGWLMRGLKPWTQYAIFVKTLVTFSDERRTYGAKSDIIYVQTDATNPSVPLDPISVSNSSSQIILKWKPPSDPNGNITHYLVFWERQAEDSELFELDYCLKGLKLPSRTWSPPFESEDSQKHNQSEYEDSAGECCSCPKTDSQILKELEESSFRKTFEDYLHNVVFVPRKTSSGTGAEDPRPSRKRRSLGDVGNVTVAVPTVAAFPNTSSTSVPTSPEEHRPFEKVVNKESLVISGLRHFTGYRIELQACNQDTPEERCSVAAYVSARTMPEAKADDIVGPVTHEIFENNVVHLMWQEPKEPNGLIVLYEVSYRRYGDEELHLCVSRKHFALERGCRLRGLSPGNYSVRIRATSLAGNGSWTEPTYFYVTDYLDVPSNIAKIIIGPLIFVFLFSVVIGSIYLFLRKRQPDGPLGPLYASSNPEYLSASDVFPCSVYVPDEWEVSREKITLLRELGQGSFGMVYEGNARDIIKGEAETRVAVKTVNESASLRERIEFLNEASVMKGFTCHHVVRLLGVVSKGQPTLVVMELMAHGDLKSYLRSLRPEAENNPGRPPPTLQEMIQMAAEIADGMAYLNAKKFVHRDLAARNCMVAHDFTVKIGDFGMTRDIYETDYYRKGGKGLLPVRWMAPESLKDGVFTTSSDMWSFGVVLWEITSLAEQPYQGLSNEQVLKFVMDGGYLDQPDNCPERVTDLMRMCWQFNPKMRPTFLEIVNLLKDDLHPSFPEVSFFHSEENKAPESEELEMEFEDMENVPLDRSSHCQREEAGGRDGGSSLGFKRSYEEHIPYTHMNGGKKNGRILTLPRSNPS
T1 sequence (P06213 979-1382): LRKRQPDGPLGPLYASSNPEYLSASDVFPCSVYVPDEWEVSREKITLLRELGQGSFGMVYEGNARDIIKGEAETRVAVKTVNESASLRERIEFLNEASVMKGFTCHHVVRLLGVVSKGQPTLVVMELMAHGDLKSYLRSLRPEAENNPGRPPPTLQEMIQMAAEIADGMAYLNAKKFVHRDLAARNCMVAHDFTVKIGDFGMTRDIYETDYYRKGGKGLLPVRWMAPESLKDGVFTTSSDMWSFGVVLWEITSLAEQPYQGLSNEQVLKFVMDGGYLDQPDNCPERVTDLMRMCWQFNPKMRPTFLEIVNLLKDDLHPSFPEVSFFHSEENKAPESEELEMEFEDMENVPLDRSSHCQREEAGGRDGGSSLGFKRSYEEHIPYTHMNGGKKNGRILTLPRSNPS
Chain of ALK (Q9UM73 19-1620): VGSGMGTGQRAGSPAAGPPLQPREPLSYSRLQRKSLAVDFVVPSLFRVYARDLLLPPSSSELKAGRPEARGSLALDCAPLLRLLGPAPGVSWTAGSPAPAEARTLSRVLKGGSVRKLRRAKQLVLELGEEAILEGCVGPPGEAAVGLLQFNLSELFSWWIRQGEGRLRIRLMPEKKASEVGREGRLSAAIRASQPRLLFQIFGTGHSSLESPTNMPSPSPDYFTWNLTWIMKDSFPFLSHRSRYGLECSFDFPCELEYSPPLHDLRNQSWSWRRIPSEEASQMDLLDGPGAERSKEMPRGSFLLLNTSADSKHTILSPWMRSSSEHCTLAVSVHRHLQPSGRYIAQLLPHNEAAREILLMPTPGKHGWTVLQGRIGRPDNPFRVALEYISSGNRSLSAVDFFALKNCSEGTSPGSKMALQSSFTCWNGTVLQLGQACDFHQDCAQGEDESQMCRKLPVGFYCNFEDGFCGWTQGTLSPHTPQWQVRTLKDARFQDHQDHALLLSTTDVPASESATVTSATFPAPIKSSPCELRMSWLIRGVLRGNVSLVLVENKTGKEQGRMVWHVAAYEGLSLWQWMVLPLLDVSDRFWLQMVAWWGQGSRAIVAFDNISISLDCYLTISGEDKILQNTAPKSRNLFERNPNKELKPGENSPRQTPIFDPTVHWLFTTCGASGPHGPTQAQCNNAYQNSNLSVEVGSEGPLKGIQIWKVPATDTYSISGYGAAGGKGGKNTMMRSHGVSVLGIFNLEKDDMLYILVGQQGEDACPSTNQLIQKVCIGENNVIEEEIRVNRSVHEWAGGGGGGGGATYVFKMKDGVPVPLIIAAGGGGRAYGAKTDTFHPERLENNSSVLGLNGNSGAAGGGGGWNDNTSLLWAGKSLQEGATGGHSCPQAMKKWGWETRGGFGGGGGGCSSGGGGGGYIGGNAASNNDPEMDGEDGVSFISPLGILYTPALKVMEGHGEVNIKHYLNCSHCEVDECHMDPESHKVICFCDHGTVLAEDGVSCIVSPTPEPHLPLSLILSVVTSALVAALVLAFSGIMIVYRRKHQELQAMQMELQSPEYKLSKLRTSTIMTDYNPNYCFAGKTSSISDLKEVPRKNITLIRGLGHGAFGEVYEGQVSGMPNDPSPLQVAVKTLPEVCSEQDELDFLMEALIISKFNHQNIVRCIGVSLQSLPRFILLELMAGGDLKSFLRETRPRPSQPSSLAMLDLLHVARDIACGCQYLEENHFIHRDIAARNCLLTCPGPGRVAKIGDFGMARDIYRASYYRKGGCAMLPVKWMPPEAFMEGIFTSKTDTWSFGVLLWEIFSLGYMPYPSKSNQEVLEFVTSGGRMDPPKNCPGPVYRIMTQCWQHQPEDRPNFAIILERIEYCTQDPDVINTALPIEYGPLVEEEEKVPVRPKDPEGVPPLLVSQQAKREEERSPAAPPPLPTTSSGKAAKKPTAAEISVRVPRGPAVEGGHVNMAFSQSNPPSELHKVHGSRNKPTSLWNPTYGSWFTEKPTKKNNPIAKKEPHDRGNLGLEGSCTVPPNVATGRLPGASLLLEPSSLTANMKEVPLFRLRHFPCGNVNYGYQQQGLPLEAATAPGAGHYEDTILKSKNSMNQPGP

As a reminder, the pIC50 is the negative decadic logarithm of the IC50, by convention in mol/L. A higher pIC50 goes with a low IC50. Regarding `COc1cc(C2=CCCN(C)C2)ccc1Nc1nc(Nc2ccc(F)cc2C(N)=O)c2cc[nH]c2n1` [Example 55, 5-fluoro-2-[(2-{[2-(methyloxy)-4-(1-methyl-1,2,5,6-tetrahydro-3-pyridinyl)phenyl]amino}-1H-pyrrolo[2,3-d]pyrimidin-4-yl)amino]benzamide], the negative logarithm of the IC50 (pIC50) was 9.00 to 9.60 in assay [1], 9.00 to 9.60 in assay [2], 6.30 to 7.00 in assay [3] and 6.30 to 7.00 in assay [4].

On to `COc1cc(N2CCN(C(C)C)CC2)ccc1Nc1nc(Nc2cc(F)ccc2C(N)=O)c2cc[nH]c2n1` [Example 79, 4-fluoro-2-[(2-{[4-[4-(1-methylethyl)-1-piperazinyl]-2-(methyloxy)phenyl]amino}-1H-pyrrolo[2,3-d]pyrimidin-4-yl)amino]benzamide], for which the IC50 in assay [5] was 0.251 to 1 nM. Moreover, the negative-log IC50 (pIC50) in assay [1] was 9.00 to 9.60; in assay [3], 6.30 to 7.00; in assay [4] it was more than 7.00.

For `CCCN1CCCC(c2ccc(Nc3nc(Nc4ccccc4C(=O)NC)c4cc[nH]c4n3)c(OC)c2)C1` (centres unmarked) [Example 24, N-methyl-2-[(2-{[2-(methyloxy)-4-(1-propyl-3-piperidinyl)phenyl]amino}-1H-pyrrolo[2,3-d]pyrimidin-4-yl)amino]benzamide], the IC50 in assay [5] is 1.26 to 3.98 nM. The results for the pIC50 in assay [2], in assay [3] and in assay [4] were 9.00 to 9.60, 6.30 to 7.00 and 6.30 to 7.00, respectively.

`CNC(=O)c1c(F)cccc1Nc1nc(Nc2cc(N(C)C(=O)CN(C)C)c(C)cc2OC)nc2[nH]ccc12` [Example 254, 2-[(2-{[5-[(N,N-dimethylglycyl)(methyl)amino]-4-methyl-2-(methyloxy)phenyl]amino}-1H-pyrrolo[2,3-d]pyrimidin-4-yl)amino]-6-fluoro-N-methylbenzamide]: the negative logarithm of the IC50 (pIC50) was 6.80 to 8.30 in assay [1], 6.70 to 8.30 in assay [2], less than 6.30 in assay [3] and less than 6.30 in assay [4].

On to `Cc1ccc(NC(=O)CN(C)C)cc1Nc1nc(Nc2cc3ccccc3cc2C(N)=O)c2cc[nH]c2n1` [Example 30, 3-{[2-({5-[(N,N-dimethylglycyl)amino]-2-methylphenyl}amino)-1H-pyrrolo[2,3-d]pyrimidin-4-yl]amino}-2-naphthalenecarboxamide], for which the IC50 in assay [5] is 1.26 to 3.98 nM. Also, the values for the negative-log IC50 (pIC50) in assay [1], in assay [2] and in assay [4] were 9.00 to 9.60, 6.70 to 8.30 and less than 6.30, respectively.

Consider `CNC(=O)c1c(F)cccc1Nc1nc(Nc2cc3c(cc2OC)CCCN3C(=O)CN(C)C)nc2[nH]cc(C)c12` [Example 260, 2-[(2-{[1-(N,N-dimethylglycyl)-6-(methyloxy)-1,2,3,4-tetrahydro-7-quinolinyl]amino}-5-methyl-1H-pyrrolo[2,3-d]pyrimidin-4-yl)amino]-6-fluoro-N-methylbenzamide], for which the IC50 in assay [5] was 0.251 to 1 nM. Besides, the negative logarithm of the IC50 (pIC50) in assay [1] is 9.00 to 9.60; in assay [3] it was more than 7.00; in assay [4], more than 7.00.

`COc1ccc(OCCCN(C)C)cc1Nc1nc(Nc2ccc(F)cc2C(N)=O)c2cc[nH]c2n1` [Example 64, 2-[(2-{[5-{[3-(dimethylamino)propyl]oxy}-2-(methyloxy)phenyl]amino}-1H-pyrrolo[2,3-d]pyrimidin-4-yl)amino]-5-fluorobenzamide]: the IC50 in assay [5] is 1.26 to 3.98 nM. For the same molecule, the values for the pIC50 in assay [2], in assay [6] and in assay [3] were 8.40 to 8.90, 6.00 to 6.60 and more than 7.00, respectively.

`COc1cc2c(cc1Nc1nc(Nc3cccc(F)c3C(N)=O)c3c(C)c[nH]c3n1)N(C(=O)CN(C)C)CCC2` [Example 261, 2-[(2-{[1-(N,N-dimethylglycyl)-6-(methyloxy)-1,2,3,4-tetrahydro-7-quinolinyl]amino}-5-methyl-1H-pyrrolo[2,3-d]pyrimidin-4-yl)amino]-6-fluorobenzamide]: the IC50 in assay [5] is 0.251 to 1 nM. The results for the pIC50 in assay [1], in assay [3] and in assay [4] were 9.00 to 9.60, more than 7.00 and more than 7.00, respectively.

The values above are taken from patent US7981903B2, “2-[2-{phenylamino}-1H-pyrrolo[2,3-D]pyrimidin-4-yl)amino] benzamide derivatives as IGF-1R inhibitors for the treatment of cancer” (GlaxoSmithKline LLC, priority 2007, dated 2011).
